Like-named read-outs stand apart in the source and are kept apart here.
Tested on: primary neuronal cultures from embryonic rat brains
Assay: Rat oscillation assay (FLIPR, neuronal calcium oscillations)
Assay type: cell-based
Experimental: This assay is a functional phenotypic assay designed to mimic epileptic seizures using primary neuronal cultures from embryonic rat brains, which form a functional neuronal network that generate synchronized intracellular calcium concentration oscillations when cultured at high density in 384-well plate. The epileptic phenotype is induced by incubating the neurons in magnesium-free assay buffer, that results in increased probability of NMDA receptor activation, leading to an increased frequency and amplitude of intracellular calcium oscillations. Once neurons are incubated with the calcium indicator dye Fluo-8 AM (Tebu-bio), neuronal calcium oscillations can be monitored in real time using FLIPR® Tetra (fluorometric plate reader, Molecular Devices). With these recordings, the effect of anti-epileptic drugs can be quantified. The anti-epileptic effect of compounds, which activate directly or indirectly the Kv7 channels can be modulated by the Kv7 channel blocker XE-991. The assay was performed as described previously (Pacico N, Mingorance-Le Meur A. New In Vitro Phenotypic Assay for Epilepsy: Fluorescent Measurement of Synchronized Neuronal Calcium Oscillations. PLoS ONE 9(1) 2014) with modifications described hereafter.
Animal care followed standard procedures in accordance with swiss institutional guidelines. Dissociated neuronal cultures were obtained from cerebral cortices of embryonic Wistar rats at embryonic stage E18 (Charles River). The uterine horns were removed by caesarian surgery from deeply anesthetized rats (Isofurane) and sacrificed by decapitation. The embryos were decapitated by closing forceps. The brains were isolated and dissected one by one in ice-cold PBS (Life Technologies) under optical control using a binocular. Meninges, olfactory bulbs, and basal ganglia were removed. Cortical hemispheres (still including the hippocampus) were cut in small pieces with tweezers and placed on ice in prechilled Hibernate-E medium (Life technology). The hemispheres were then incubated in 10 mL of Hibernate-E containing 15 U/mL papain (Worthington) for 25 min at 30° C. with gentle mixing every 10 min. Genomic DNA was then digested by prolonging the incubation during 10 min at 37° C. in presence of 4 U/mL rDNase I (Ambion). The obtained suspension was then centrifuged at 800 g for 5 min and the cell pellet was resuspended in 2 mL Hibernate-E and gently dissociated by pipetting up and down 10 times with a plastic Pasteur pipette resulting in a homogenous cell suspension. This suspension was immediately filtered through a 70 µm cell strainer (MACS® SmartStrainer, Miltenyi), collected in 10 mL Hibernate-E and centrifuged at 800 g for 5 min. The cell pellet was resuspended in Neurobasal medium, supplemented with 2% B-27, 0.5 mM Glutamax-I, 100 U/mL penicillin, 100 µg/mL streptomycin (Life Technologies) and diluted at the final concentration of 300′000 cells/mL. One day before plating the cells, 384-well plates were coated with 25 µL/well of 0.1 % poly-L-lysine solution (Sigma), incubated overnight at 37° C., washed two times with sterile distilled water and allowed to dry at room temperature for >2 h. The neurons were seeded at a density of 15′000 cells/well in 50 µL/well in a 384-well black, clear-bottomed plates (Corning) and subsequently maintained in an incubator at 37° C., 5% CO2 and 95% humidity for 8 to 10 days. After 3 and 7 days, 40% of media was renewed under sterile conditions.
Neurons seeded in the assay plates were washed with Hank’s balanced salt solution (HBSS) devoid of Ca^2+ and Mg^2+, supplemented with 20 mM HEPES (Life Technologies) and 2 mM CaCl2 (Sigma), pH 7.4 (hereafter called Assay buffer) using a Biotek EL406 plate washer. Neurons were loaded with 1 µM Fluo-8 AM in Assay buffer for 15 min at 37° C., 5% CO2. […]

[1] = Rattus norvegicus, 20 min, 20 min after compound addition, AUC of fluorescence, read-out: FLIPR: IC50 [nM] 20 min
[2] = Rattus norvegicus, Cortical neurone, acute phase, ratio of AUC fluorescence before and after compound addition, rat cortical neurons, Mg-free buffer, read-out: FLIPR: IC50 [nM] acute
[3] = 20 min after compound addition, AUC of fluorescence, read-out: FLIPR: IC50 [nM] 20 min
[4] = acute phase, ratio of AUC fluorescence before and after compound addition, rat cortical neurons, Mg-free buffer, read-out: FLIPR: IC50 [nM] acute

Compound | IC50 [1] [nM] | IC50 [2] [nM] | IC50 [3] [nM] | IC50 [4] [nM]
COCC(NC(=O)NC1CC(C(F)F)C1)c1ccnc(OCC(F)(F)F)c1 (racemic) [Example 31, (±)-1-(3-Difluoromethyl-Cyclobutyl)-3-{2-Methoxy-1-[2-(2,2,2-Trifluoro-Ethoxy)-Pyridin-4-yl]-Ethyl}-Urea] | 763 | 190 |  | 
COCC(NC(=O)NC1CC(C(F)(F)F)C1)c1ccnc(OCC(F)(F)F)c1 (racemic) [Example 32, (±)-1-{2-Methoxy-1-[2-(2,2,2-Trifluoro-Ethoxy)-Pyridin-4-yl]-Ethyl}-3-(3-Trifluoromethyl-Cyclobutyl)-Urea] | 303 | 67 |  | 
CC(NC(=O)NC1CC(C(F)F)C1)c1ccnc(OC(F)F)c1 (racemic) [Example 33, (±)-1-[1-(2-Difluoromethoxy-Pyridin-4-yl)-Ethyl]-3-(3-Difluoromethyl-Cyclobutyl)-Urea] | 1510 | 946 |  | 
Cc1nc(OCC(F)(F)F)cc(C(C)NC(=O)NC23CC(C(F)(F)F)(C2)C3)n1 (racemic) [Example 34, (±)-1-{1-[2-Methyl-6-(2,2,2-Trifluoro-Ethoxy)-Pyrimidin-4-yl]-Ethyl}-3-(3-Trifluoromethyl-Bicyclo[1.1.1]Pent-1-yl)-Urea] | 291 | 247 |  | 
O=C(NCc1cccc(C(F)(F)F)c1)NC1CC(C(F)(F)F)C1 (single isomer, unassigned) [Example 50, 1-(3-(Trifluoromethyl)Benzyl)-3-(3-(Trifluoromethyl)Cyclobutyl)Urea] |  |  | 82 | 68
O=C(NCc1cccc(C(F)(F)F)c1)NC1CC(C(F)(F)F)C1 (single isomer, unassigned) [Example 51, 1-(3-(Trifluoromethyl)Benzyl)-3-(3-(Trifluoromethyl)Cyclobutyl)Urea] |  |  | 515 | 363
O=C(NCc1cccc(C(F)(F)F)c1)NC1CC(C(F)F)C1 (single isomer, unassigned) [Example 52, 1-(3-(Difluoromethyl)Cyclobutyl)-3-(3-(Trifluoromethyl)Benzyl)Urea] |  |  | 738 | 660
Cc1nc(OCC(F)(F)F)cc([C@H](C)NC(=O)NC23CC(C(F)(F)F)(C2)C3)n1 (single isomer, unassigned) [Example 54] | 216 | 218 |  | 
O=C(NCc1ccnc(OCC(F)(F)F)c1)NC1CC(C(F)F)C1 (single isomer, unassigned) [Example 55, 1-(3-(Difluoromethyl)Cyclobutyl)-3-((2-(2,2,2-Trifluoroethoxy)Pyridin-4-yl)Methyl)Urea] |  |  | 1160 | 701
O=C(NCc1ccnc(OCC(F)(F)F)c1)NC1CC(C(F)F)C1 (single isomer, unassigned) [Example 56, 1-(3-(Difluoromethyl)Cyclobutyl)-3-((2-(2,2,2-Trifluoroethoxy)Pyridin-4-yl)Methyl)Urea] |  |  | 547 | 123
C[C@H](NC(=O)NC1CC(C(F)F)C1)c1cccc(OC(F)(F)F)c1 (single isomer, unassigned) [Example 57] |  |  | 314 | 146
C[C@H](NC(=O)NC1CC(C(F)F)C1)c1cccc(OC(F)(F)F)c1 (single isomer, unassigned) [Example 58] |  |  | 105 | 51
O=C(NCc1cccc(C(F)(F)F)c1)NC1CC(F)(F)C1 [Example 1, 1-(3,3-Difluoro-Cyclobutyl)-3-(3-Trifluoromethyl-Benzyl)-Urea] | 855 | 486 |  | 
CC(NC(=O)NC12CC(C1)C2)c1cccc(C(F)(F)F)c1 (centres unmarked) [Example 2, 1-Bicyclo[1.1.1]Pent-1-yl-3-[1-(3-Trifluoromethyl-Phenyl)-Ethyl]-Urea] | 466 | 291 |  | 
CC(NC(=O)NC1CC(C(F)F)C1)c1cccc(C(F)(F)F)c1 (centres unmarked) [Example 3, 1-(3-Difluoromethyl-cyclobutyl)-3-[1-(3-trifluoromethylphenyl)-ethyl]-urea] | 334 | 188 |  | 
CC(NC(=O)NC12CC(F)(C1)C2)c1cccc(C(F)(F)F)c1 (centres unmarked) [Example 4, 1-(3-Fluoro-bicyclo[1.1.1]pent-1-yl)-3-[1-(3-trifluoromethylphenyl)-ethyl]-urea] | 1060 | 138 |  | 
CC(NC(=O)NC12CC(C(F)F)(C1)C2)c1cccc(C(F)(F)F)c1 (centres unmarked) [Example 5, 1-(3-Difluoromethyl-bicyclo[1.1.1]pent-1-yl)-3-[1-(3-trifluoromethyl-phenyl)-ethyl]-urea] | 216 | 296 |  | 
CC(NC(=O)NC12CC(C1)C2)c1cccc(OC(F)(F)F)c1 (centres unmarked) [Example 6, 1-Bicyclo[1.1.1]Pent-1-yl-3-[1-(3-Trifluoromethoxy-Phenyl)-Ethyl]-Urea] | 271 | 126 |  | 
CC(NC(=O)NC1CC(C(F)F)C1)c1cccc(OC(F)(F)F)c1 (centres unmarked) [Example 7, 1-(3-Difluoromethyl-cyclobutyl)-3-[1-(3-trifluoromethoxyphenyl)-ethyl]-urea] | 100 | 63 |  | 
CC(NC(=O)NC12CC(F)(C1)C2)c1cccc(OC(F)(F)F)c1 (centres unmarked) [Example 8, 1-(3-Fluoro-bicyclo[1.1.1]pent-1-yl)-3-[1-(3-trifluoromethoxyphenyl)-ethyl]-urea] | 331 | 168 |  | 
O=C(NC1CC(O)(C(F)(F)F)C1)NC(c1cccc(C(F)(F)F)c1)C(F)F (centres unmarked) [Example 9, 1-[2,2-Difluoro-1-(3-Trifluoromethyl-Phenyl)-Ethyl]-3-(3-Hydroxy-3-Trifluoromethyl-Cyclobutyl)-Urea] | 1420 | 766 |  | 
CC1(NC(=O)NC(c2cccc(C(F)(F)F)c2)C(F)F)CC(F)(F)C1 (centres unmarked) [Example 10, 1-(3,3-Difluoro-1-Methyl-Cyclobutyl)-3-[2,2-Difluoro-1-(3-TrifluoromethylPhenyl)-Ethyl]-Urea] | 51 | 57 |  | 
CC(NC(=O)NC12CC(C1)C2)c1cccc(OC(F)F)c1 (centres unmarked) [Example 11, 1-Bicyclo[1.1.1]Pent-1-yl-3-[1-(3-Difluoromethoxy-Phenyl)-Ethyl]-Urea] | 1360 | 741 |  | 
O=C(NC(CO)c1cccc(C(F)(F)F)c1)NC12CC(C(F)F)(C1)C2 (centres unmarked) [Example 12, 1-(3-Difluoromethyl-Bicyclo[1.1.1]Pent-1-yl)-3-[2-Hydroxy-1-(3-Trifluoromethyl-Phenyl)-Ethyl]-Urea] | 164 | 154 |  | 
O=C(NC(c1cccc(C(F)(F)F)c1)C(F)F)NC12CC(C(F)F)(C1)C2 (centres unmarked) [Example 13, 1-(3-Difluoromethyl-bicyclo[1.1.1]pent-1-yl)-3-[2,2-difluoro-1-(3-trifluoromethyl-phenyl)-ethyl]-urea] | 41 | 14 |  | 
COCC(NC(=O)NC12CC(C(F)F)(C1)C2)c1cccc(C(F)(F)F)c1 (centres unmarked) [Example 14, 1-(3-Difluoromethyl-bicyclo[1.1.1]pent-1-yl)-3-[2-methoxy-1-(3-trifluoromethyl-phenyl)-ethyl]-urea] | 79 | 37 |  | 
O=C(NCc1cccc(C(F)(F)F)c1F)NC12CC(C(F)F)(C1)C2 [Example 15, 1-(3-Difluoromethyl-bicyclo[1.1.1]pent-1-yl)-3-(2-fluoro-3-trifluoromethyl-benzyl)-urea] | 960 | 619 |  | 
O=C(NCc1cc(F)cc(C(F)(F)F)c1)NC12CC(C(F)F)(C1)C2 [Example 16, 1-(3-Difluoromethyl-bicyclo[1.1.1]pent-1-yl)-3-(3-fluoro-5-trifluoromethyl-benzyl)-urea] | 848 | 716 |  | 

— US20230303486A1, “CYCLOBUTYL-UREA DERIVATIVES” (Idorsia Pharmaceuticals Ltd, priority 2020, published 2023)
